The text below walks through data of PMC6143625, “A high throughput screen for next-generation leads targeting malaria parasite transmission” (Nature Communications, 2018).

Some results are limits rather than exact numbers.

The subject of assay [1] is P. falciparum stage V male gametocytes (male gamete formation). Put plainly: P. falciparum dual gamete formation assay (Pf DGFA), male readout (exflagellation), 48 h carry-over format. Conditions: primary screen, 2 uM, 48 h incubation, single replicate. The class given is cell-based, Plasmodium falciparum NF54.
The test system of assay [2] is P. falciparum stage V female gametocytes (female gamete formation). Put plainly: P. falciparum dual gamete formation assay (Pf DGFA), female readout (Pfs25 expression), 48 h carry-over format. Format: cell-based, Plasmodium falciparum NF54. As to conditions: primary screen, 2 uM, 48 h incubation, single replicate.

Turning to `COc1cccc2c1OCC(C(=O)N1CCN(C3CCCC3)C(=O)C1)C2` (centres unmarked) [DDD01252180], the “%Inhibition Male @2uM” value in assay [1] stood at 176.84%. Further, the “%Inhibition Female @2uM” value in assay [2] is recorded as less than 30%.
The corresponding values for `COc1ccc(-c2cc(CNc3ncnc4c3CCNCC4)no2)cc1` [DDD01252258] are less than 30% and 36.22%.
With `CN(C)c1nc2c(c(N(C)C)n1)CCN(C(=O)CN1C[C@H]3CC[C@@H]1C3)C2` [DDD01252415], in assay [1], the “%Inhibition Male @2uM” value was less than 30%. The “%Inhibition Female @2uM” value in assay [2] stood at 30.39%.
For `Cc1c(NCc2cccnc2)cccc1C(=O)N1CCC(N(C)C)C1` (centres unmarked) [DDD01252445], the “%Inhibition Male @2uM” value in assay [1] is reported as 39.91%. Also, the “%Inhibition Female @2uM” value in assay [2] is on record as less than 30%.
As for `c1ccn2c(C3CCCN(c4ncnc5c4CCNC5)C3)nnc2c1` (centres unmarked) [DDD01252518], the “%Inhibition Male @2uM” value in assay [1] was less than 30%. Also, in assay [2], the “%Inhibition Female @2uM” value was found to be 33.03%.
The corresponding values for `O=C(c1cccc(S(=O)(=O)NCCc2ccccn2)c1)N1CCOCC1` [DDD01252530] are 176.84% and less than 30%.
The corresponding values for `CN(C)Cc1nnc(C2CCCN(Cc3ccc(Cl)s3)C2)n1C` (centres unmarked) [DDD01252876] are 184.62% and less than 30%.
The matching figures for `Cc1cc(CC(=O)N2CCN(CC(C)C)[C@@H]3CS(=O)(=O)C[C@@H]32)ccc1F` [DDD01253102]: 30.33% and less than 30%.
Regarding `Cc1ccc(-c2nc(CNC(C)CCO)[nH]c2-c2ccccn2)cc1` (centres unmarked) [DDD01253542], the “%Inhibition Male @2uM” value in assay [1] came to 59.22%. In addition, in assay [2], the “%Inhibition Female @2uM” value is 47.40%.
The matching figures for `CN1CC2(CCN(C(=O)c3ccc(=O)n(C)c3)CC2)CC1=O` [DDD01253564]: less than 30% and 30.30%.
As to `CS(=O)(=O)N1C[C@H]2CC[C@@H](C1)N(C(=O)CCn1cnc3ccccc31)C2` [DDD01253654], the “%Inhibition Male @2uM” value in assay [1] came out at 35.49%. Moreover, in assay [2], the “%Inhibition Female @2uM” value is less than 30%.
The corresponding values for `Cc1cc(NCc2ccc(O)cc2)n2nc(C)cc2n1` [DDD01253811] are less than 30% and 99.46%.
The matching figures for `CC(C)OC(=O)N1CCC(Cc2cccc(C(N)=O)c2)C1` (centres unmarked) [DDD01254183]: 132.02% and less than 30%.
The matching figures for `CSc1ccc(C(=O)N2CCCC(Nc3ccc(F)cc3)C2)cc1` (centres unmarked) [DDD01254674]: 162.04% and less than 30%.
With `Cc1oc(-c2ccoc2)nc1CN1CCCCC1CCc1ccccc1` (centres unmarked) [DDD01254868], the “%Inhibition Male @2uM” value in assay [1] came out at 143.16%. In assay [2], the “%Inhibition Female @2uM” value was less than 30%.
For the compound `O=C(CSc1ccncc1)N1CCC2(CC1)c1ccccc1CC2O` (centres unmarked) [DDD01255239], the “%Inhibition Male @2uM” value in assay [1] came out at 143.16%. In assay [2], the “%Inhibition Female @2uM” value was less than 30%.
As for `CN(Cc1nccn1C)C1CCCN(CCCc2ccccc2)C1` (centres unmarked) [DDD01255359], in assay [1], the “%Inhibition Male @2uM” value worked out at 61.22%. Further, the “%Inhibition Female @2uM” value in assay [2] is less than 30%.
For `CCc1nnc(CNC(=O)CCN2CCN(c3cccc(C)c3)CC2)s1` [DDD01255634], the “%Inhibition Male @2uM” value in assay [1] stood at 133.78%. Moreover, the “%Inhibition Female @2uM” value in assay [2] is less than 30%.
Turning to `Cc1ccc(CN2CCN(C(=O)c3ccc(CO)cc3)C(C)C2=O)cc1` (centres unmarked) [DDD01255654], the “%Inhibition Male @2uM” value in assay [1] was less than 30%. The “%Inhibition Female @2uM” value in assay [2] was found to be 38.25%.
Consider `COC(=O)C1CCN(C(=O)c2cccc(NS(C)(=O)=O)c2C)CC1` [DDD01255952], for which the “%Inhibition Male @2uM” value in assay [1] was determined as 126.32%. Further, in assay [2], the “%Inhibition Female @2uM” value is less than 30%.
The corresponding values for `COc1cccc2c1OCC(C(=O)N1CCC(NS(C)(=O)=O)CC1)C2` (centres unmarked) [DDD01255971] are 160.00% and less than 30%.
Consider `Cc1ccccc1C(=O)Nc1ccc(OC2CCN(C)CC2)cc1` [DDD01256105], for which the “%Inhibition Male @2uM” value in assay [1] is reported as 177.06%. The “%Inhibition Female @2uM” value in assay [2] is given as less than 30%.
The corresponding values for `Cc1cnn(CCCN2C(=O)CCc3ccccc32)c1` [DDD01256166] are 31.82% and less than 30%.
As for `Cc1ccc(CN2CCCC(c3nnc(CN4CCCC4)n3C)C2)s1` (centres unmarked) [DDD01256510], the “%Inhibition Male @2uM” value in assay [1] was 109.47%. The “%Inhibition Female @2uM” value in assay [2] is listed as less than 30%.
On to `COCCN(C)CCN1CC2(CCN(C3CCOCC3)CC2)OC1=O` [DDD01256592], for which the “%Inhibition Male @2uM” value in assay [1] was 44.84%. In addition, the “%Inhibition Female @2uM” value in assay [2] is reported as less than 30%.
The matching figures for `O=C(O)CCc1cc2n(n1)CCCN(C(=O)c1cc3ccccc3s1)C2` [DDD01256606]: less than 30% and 30.77%.
The matching figures for `CC(C)(CNC1CCCN(Cc2ccccn2)C1)CN1CCOCC1` (centres unmarked) [DDD01256674]: less than 30% and 31.10%.
The matching figures for `Cc1cc(C(=O)N2CCC(c3nccn3Cc3ccccn3)CC2)no1` [DDD01256728]: 88.77% and less than 30%.
Regarding `CCOCC(=O)N1CCC(c2nccn2CC2CC2)CC1` [DDD01256942], the “%Inhibition Male @2uM” value in assay [1] is 104.28%. The “%Inhibition Female @2uM” value in assay [2] is reported as less than 30%.
The corresponding values for `CN(C)C(=O)N1C[C@H]2CC[C@@H](C1)N(C/C=C/c1ccc(F)cc1)C2` [DDD01256992] are less than 30% and 32.94%.
The matching figures for `COc1ccc(C(=O)N2CCOC3(CNCCOC3)C2)c(OC)n1` (centres unmarked) [DDD01257050]: 126.32% and less than 30%.
The matching figures for `CN(Cc1ccccc1CN1CCCC1)C(=O)c1c[nH]c(=O)[nH]1` [DDD01257093]: less than 30% and 34.04%.
On to `Cc1ccc(F)cc1CC(=O)N(CCN1CCOCC1)Cc1ccco1` [DDD01257151], for which the “%Inhibition Male @2uM” value in assay [1] was less than 30%. The “%Inhibition Female @2uM” value in assay [2] was 36.90%.
The corresponding values for `O=C1N(CCC2CCCCC2)CCCC1(O)CNCCc1ccccc1` (centres unmarked) [DDD01257222] are 147.75% and less than 30%.
Regarding `CCn1cc(CN(C)C(=O)c2cccc(CCC(C)(C)O)c2)cn1` [DDD01257573], the “%Inhibition Male @2uM” value in assay [1] is reported as less than 30%. In assay [2], the “%Inhibition Female @2uM” value is on record as 32.19%.
`CN(CCO)Cc1nnc(C2CCN(C3CCCCC3)CC2)n1C` [DDD01257771]: in assay [1], the “%Inhibition Male @2uM” value is listed as less than 30%. For the same compound, the “%Inhibition Female @2uM” value in assay [2] was found to be 30.00%.
For `COc1ccc(C(=O)C2CCCN(Cc3ccncc3)C2)c(OC)c1` (centres unmarked) [DDD01257881], in assay [1], the “%Inhibition Male @2uM” value was less than 30%. In assay [2], the “%Inhibition Female @2uM” value was found to be 31.13%.
Take `c1cn(Cc2nnc(C3CCN(c4nccs4)CC3)n2C2CC2)cn1` [DDD01257895]: in assay [1], the “%Inhibition Male @2uM” value was less than 30%. In addition, the “%Inhibition Female @2uM” value in assay [2] turned out to be 34.43%.
`Cc1nn(C)cc1C(=O)N1C[C@@H]2CC[C@H]1CN(S(=O)(=O)N(C)C)C2` [DDD01257957]: in assay [1], the “%Inhibition Male @2uM” value is listed as less than 30%. Moreover, in assay [2], the “%Inhibition Female @2uM” value was determined as 39.59%.
Regarding `Cc1cc(C)nc(N2Cc3cnn(Cc4ccc(F)cc4)c3C2)n1` [DDD01258067], the “%Inhibition Male @2uM” value in assay [1] is less than 30%. The “%Inhibition Female @2uM” value in assay [2] stood at 46.44%.
